# According to patent US20030224416A1, “Schizophrenia related gene” (priority 2002, published 2003):
# System: Kv3.1 α-subunit mRNA
# Assay: Experiment 1: in situ hybridization of Kv3.1 α-subunit mRNA in brain, chronic PCP rat model of schizophrenia with antipsychotic co-treatment
# Assay type: in vivo
smiles,measurement,setting,value
"Cc1cc2c(s1)Nc1ccccc1N=C2N1CCN(C)CC1 [Olanzapine, olanzapine]",Kv3.1 α-subunit mRNA expression,"ACg, PCP + drug 0.3 mg/kg/day",15.83 ± 0.73 PSL/mm^2
same,Kv3.1 α-subunit mRNA expression,"ACg, PCP + drug 1 mg/kg/day",14.83 ± 1.00 PSL/mm^2
same,Kv3.1 α-subunit mRNA expression,"ACg, PCP + drug 3 mg/kg/day",16.31 ± 0.40 PSL/mm^2
same,Kv3.1 α-subunit mRNA expression,"ACg, PCP + drug 10 mg/kg/day",15.03 ± 0.72 PSL/mm^2
same,Kv3.1 α-subunit mRNA expression,"AcbC, PCP + drug 0.3 mg/kg/day",8.59 ± 0.58 PSL/mm^2
same,Kv3.1 α-subunit mRNA expression,"AcbC, PCP + drug 1 mg/kg/day",8.12 ± 0.67 PSL/mm^2
same,Kv3.1 α-subunit mRNA expression,"AcbC, PCP + drug 3 mg/kg/day",8.55 ± 0.25 PSL/mm^2
same,Kv3.1 α-subunit mRNA expression,"AcbC, PCP + drug 10 mg/kg/day",8.27 ± 0.31 PSL/mm^2
same,Kv3.1 α-subunit mRNA expression,"AcbS, PCP + drug 0.3 mg/kg/day",11.42 ± 0.73 PSL/mm^2
same,Kv3.1 α-subunit mRNA expression,"AcbS, PCP + drug 1 mg/kg/day",10.43 ± 0.56 PSL/mm^2
same,Kv3.1 α-subunit mRNA expression,"AcbS, PCP + drug 3 mg/kg/day",11.62 ± 0.84 PSL/mm^2
same,Kv3.1 α-subunit mRNA expression,"AcbS, PCP + drug 10 mg/kg/day",11.95 ± 1.02 PSL/mm^2
same,Kv3.1 α-subunit mRNA expression,"Au1, PCP + drug 0.3 mg/kg/day",18.60 ± 1.75 PSL/mm^2
same,Kv3.1 α-subunit mRNA expression,"Au1, PCP + drug 1 mg/kg/day",18.68 ± 0.80 PSL/mm^2
same,Kv3.1 α-subunit mRNA expression,"Au1, PCP + drug 3 mg/kg/day",17.42 ± 1.46 PSL/mm^2
same,Kv3.1 α-subunit mRNA expression,"Au1, PCP + drug 10 mg/kg/day",16.91 ± 0.86 PSL/mm^2
same,Kv3.1 α-subunit mRNA expression,"CA1pd, PCP + drug 0.3 mg/kg/day",19.98 ± 1.59 PSL/mm^2
same,Kv3.1 α-subunit mRNA expression,"CA1pd, PCP + drug 1 mg/kg/day",19.14 ± 2.06 PSL/mm^2
same,Kv3.1 α-subunit mRNA expression,"CA1pd, PCP + drug 3 mg/kg/day",18.37 ± 1.54 PSL/mm^2
same,Kv3.1 α-subunit mRNA expression,"CA1pd, PCP + drug 10 mg/kg/day",20.15 ± 1.22 PSL/mm^2
same,Kv3.1 α-subunit mRNA expression,"CA2pd, PCP + drug 0.3 mg/kg/day",21.36 ± 2.52 PSL/mm^2
same,Kv3.1 α-subunit mRNA expression,"CA2pd, PCP + drug 1 mg/kg/day",17.72 ± 1.86 PSL/mm^2
same,Kv3.1 α-subunit mRNA expression,"CA2pd, PCP + drug 10 mg/kg/day",20.59 ± 1.35 PSL/mm^2
same,Kv3.1 α-subunit mRNA expression,"CA3pd, PCP + drug 0.3 mg/kg/day",33.71 ± 3.48 PSL/mm^2
same,Kv3.1 α-subunit mRNA expression,"CA3pd, PCP + drug 1 mg/kg/day",30.50 ± 1.94 PSL/mm^2
same,Kv3.1 α-subunit mRNA expression,"CA3pd, PCP + drug 3 mg/kg/day",33.46 ± 2.04 PSL/mm^2
same,Kv3.1 α-subunit mRNA expression,"CA3pd, PCP + drug 10 mg/kg/day",32.81 ± 1.82 PSL/mm^2
same,Kv3.1 α-subunit mRNA expression,"DGgd, PCP + drug 0.3 mg/kg/day",35.22 ± 1.16 PSL/mm^2
same,Kv3.1 α-subunit mRNA expression,"DGgd, PCP + drug 1 mg/kg/day",33.04 PSL/mm^2
same,Kv3.1 α-subunit mRNA expression,"DGgd, PCP + drug 3 mg/kg/day",36.51 ± 1.07 PSL/mm^2
same,Kv3.1 α-subunit mRNA expression,"DGgd, PCP + drug 10 mg/kg/day",38.16 ± 1.10 PSL/mm^2
same,Kv3.1 α-subunit mRNA expression,"IL, PCP + drug 0.3 mg/kg/day",12.00 ± 0.65 PSL/mm^2
same,Kv3.1 α-subunit mRNA expression,"IL, PCP + drug 1 mg/kg/day",11.27 ± 1.08 PSL/mm^2
same,Kv3.1 α-subunit mRNA expression,"IL, PCP + drug 3 mg/kg/day",11.40 ± 0.41 PSL/mm^2
same,Kv3.1 α-subunit mRNA expression,"IL, PCP + drug 10 mg/kg/day",12.15 ± 0.62 PSL/mm^2
same,Kv3.1 α-subunit mRNA expression,"IO, PCP + drug 0.3 mg/kg/day",15.50 ± 0.51 PSL/mm^2
same,Kv3.1 α-subunit mRNA expression,"IO, PCP + drug 1 mg/kg/day",16.18 ± 0.32 PSL/mm^2
same,Kv3.1 α-subunit mRNA expression,"IO, PCP + drug 3 mg/kg/day",16.83 ± 0.79 PSL/mm^2
same,Kv3.1 α-subunit mRNA expression,"IO, PCP + drug 10 mg/kg/day",17.74 ± 0.37 PSL/mm^2
same,Kv3.1 α-subunit mRNA expression,"M1, PCP + drug 0.3 mg/kg/day",15.83 ± 0.69 PSL/mm^2
same,Kv3.1 α-subunit mRNA expression,"M1, PCP + drug 1 mg/kg/day",16.17 ± 1.27 PSL/mm^2
same,Kv3.1 α-subunit mRNA expression,"M1, PCP + drug 3 mg/kg/day",16.17 ± 0.79 PSL/mm^2
same,Kv3.1 α-subunit mRNA expression,"M1, PCP + drug 10 mg/kg/day",16.27 ± 0.37 PSL/mm^2
same,Kv3.1 α-subunit mRNA expression,"M2, PCP + drug 3 mg/kg/day",14.48 ± 0.90 PSL/mm^2
same,Kv3.1 α-subunit mRNA expression,"MG, PCP + drug 0.3 mg/kg/day",26.64 ± 2.22 PSL/mm^2
same,Kv3.1 α-subunit mRNA expression,"MM, PCP + drug 10 mg/kg/day",4.69 ± 2.24 PSL/mm^2
same,Kv3.1 α-subunit mRNA expression,"Pir, PCP + drug 0.3 mg/kg/day",37.73 ± 1.18 PSL/mm^2
same,Kv3.1 α-subunit mRNA expression,"Pir, PCP + drug 1 mg/kg/day",36.82 ± 0.51 PSL/mm^2
same,Kv3.1 α-subunit mRNA expression,"Pir, PCP + drug 3 mg/kg/day",43.78 ± 1.20 PSL/mm^2
same,Kv3.1 α-subunit mRNA expression,"Pir, PCP + drug 10 mg/kg/day",40.66 ± 2.21 PSL/mm^2
same,Kv3.1 α-subunit mRNA expression,"RSa, PCP + drug 0.3 mg/kg/day",16.53 ± 1.13 PSL/mm^2
same,Kv3.1 α-subunit mRNA expression,"RSa, PCP + drug 1 mg/kg/day",16.92 ± 0.74 PSL/mm^2
same,Kv3.1 α-subunit mRNA expression,"RSa, PCP + drug 3 mg/kg/day",18.21 ± 1.15 PSL/mm^2
same,Kv3.1 α-subunit mRNA expression,"RSa, PCP + drug 10 mg/kg/day",18.77 ± 1.07 PSL/mm^2
same,Kv3.1 α-subunit mRNA expression,"RSg, PCP + drug 0.3 mg/kg/day",19.48 ± 0.72 PSL/mm^2
same,Kv3.1 α-subunit mRNA expression,"RSg, PCP + drug 1 mg/kg/day",19.43 ± 1.20 PSL/mm^2
same,Kv3.1 α-subunit mRNA expression,"RSg, PCP + drug 3 mg/kg/day",20.96 ± 1.08 PSL/mm^2
same,Kv3.1 α-subunit mRNA expression,"RSg, PCP + drug 10 mg/kg/day",19.59 ± 0.92 PSL/mm^2
same,Kv3.1 α-subunit mRNA expression,"VMStr, PCP + drug 3 mg/kg/day",7.52 PSL/mm^2
same,Kv3.1 α-subunit mRNA expression,"VMStr, PCP + drug 10 mg/kg/day",5.99 ± 0.28 PSL/mm^2
same,Kv3.1 α-subunit mRNA expression,"VO, PCP + drug 0.3 mg/kg/day",19.03 ± 1.00 PSL/mm^2
same,Kv3.1 α-subunit mRNA expression,"VO, PCP + drug 1 mg/kg/day",18.35 ± 1.04 PSL/mm^2
same,Kv3.1 α-subunit mRNA expression,"VO, PCP + drug 3 mg/kg/day",18.96 ± 0.86 PSL/mm^2
same,Kv3.1 α-subunit mRNA expression,"VO, PCP + drug 10 mg/kg/day",19.88 ± 0.58 PSL/mm^2
same,Kv3.1 α-subunit mRNA expression,"dRt, PCP + drug 0.3 mg/kg/day",50.99 ± 2.22 PSL/mm^2
same,Kv3.1 α-subunit mRNA expression,"dRt, PCP + drug 1 mg/kg/day",50.92 ± 3.80 PSL/mm^2
same,Kv3.1 α-subunit mRNA expression,"dRt, PCP + drug 3 mg/kg/day",52.87 ± 1.95 PSL/mm^2
same,Kv3.1 α-subunit mRNA expression,"dRt, PCP + drug 10 mg/kg/day",52.42 ± 1.19 PSL/mm^2
same,Kv3.1 α-subunit mRNA expression,"vRt, PCP + drug 0.3 mg/kg/day",54.57 ± 3.12 PSL/mm^2
same,Kv3.1 α-subunit mRNA expression,"vRt, PCP + drug 1 mg/kg/day",46.70 ± 3.99 PSL/mm^2
same,Kv3.1 α-subunit mRNA expression,"vRt, PCP + drug 3 mg/kg/day",42.97 ± 2.22 PSL/mm^2
same,Kv3.1 α-subunit mRNA expression,"vRt, PCP + drug 10 mg/kg/day",53.69 ± 2.07 PSL/mm^2
